Results from patent US20080188560A1, “Cosmetic Compositions and Methods For Sensory Cooling” (priority 2004, published 2008).

Assay: Cooling effect/cooling potential: heat of fusion by Differential Scanning Calorimeter
Assay type: physicochemical
Settings: Pyris 1 DSC, sample cooled to −10° C., heated 10° C. per minute up to 50° C., area under the peak
Experimental: Four samples of the composition are prepared with 10%, 20% and 40% of the stearyl heptanoate in three samples and 40% Marrix (C12-C15 Alkyl Furmurate) in a fourth sample. Each sample is first weighed and subsequently cooled to −10° C. A Calorimeter (Pyris 1 Differential Scanning Calorimeter from Perkin Elmer) is used to apply heat to each sample at one minute increments, 10° C. per minute up to 50° C. The Calorimeter measures the heat of the sample at each increment. The resulting readings of heat are plotted against time for each sample. The Calorimeter measures the area under the peak on the plot to calculate the Heat of fusion (J/g) for each sample. The heat of fusion for the sample is the energy required to melt the sample from a solid form to a liquid form. The heat of fusion for the sample identifies the amount of energy the sample can absorb. Therefore, to correlate to the cooling on the skin, the higher the heat of fusion of a sample/material, the more heat the sample/material will absorb from the skin upon application to correspondingly create a cooling sensation on the skin.

(ΔH) Heat of fusion: 174.3 J/g | (ΔH) Heat of fusion (listed as active alone): 174.3 J/g | (ΔH) Heat of fusion (listed as stearyl heptanoate): 74.5 J/g
SMILES: CCCCCCCCCCCCCCCCCCOC(=O)CCCCCC [Active alone, Stearyl Heptanoate]
